# Test results published in ChEMBL document CHEMBL4715697, “Synthesis and biological activity of benzamide DNA minor groove binders” (2016).
# Legend:
# Format in all cases: functional
# T47D = experiment: Growth inhibition of human T47D cells assessed as cell growth at 0.1 uM incubated for 48 hrs by sulforhodamine B assay relative to control; details: read-out: Activity
# MCF7 [1] = experiment: Growth inhibition of human MCF7 cells assessed as cell growth at 0.01 uM incubated for 48 hrs by sulforhodamine B assay relative to control; details: read-out: Activity
# SN12C = experiment: Growth inhibition of human SN12C cells assessed as cell growth at 0.01 uM incubated for 48 hrs by sulforhodamine B assay relative to control; details: read-out: Activity
# DU-145 [2] = experiment: Growth inhibition of human DU-145 cells incubated for 48 hrs by sulforhodamine B assay
# MDA-MB-231 = experiment: Growth inhibition of human MDA-MB-231 cells assessed as cell growth at 0.1 uM incubated for 48 hrs by sulforhodamine B assay relative to control; details: read-out: Activity
# OVCAR-8 [3] = experiment: Growth inhibition of human OVCAR-8 cells assessed as cell growth at 0.01 uM incubated for 48 hrs by sulforhodamine B assay relative to control; details: read-out: Activity
# UO-31 [4] = experiment: Growth inhibition of human UO-31 cells assessed as cell growth at 0.1 uM incubated for 48 hrs by sulforhodamine B assay relative to control; details: read-out: Activity
# SNB-75 = experiment: Growth inhibition of human SNB-75 cells assessed as cell growth at 0.01 uM incubated for 48 hrs by sulforhodamine B assay relative to control; details: read-out: Activity
# A498 [5] = experiment: Growth inhibition of human A498 cells assessed as cell growth at 1 uM incubated for 48 hrs by sulforhodamine B assay relative to control; details: read-out: Activity
# MOLT-4 [6] = experiment: Growth inhibition of human MOLT-4 cells incubated for 48 hrs by sulforhodamine B assay
# A498 [7] = experiment: Growth inhibition of human A498 cells assessed as cell growth at 0.1 uM incubated for 48 hrs by sulforhodamine B assay relative to control; details: read-out: Activity
# NCI/ADR-RES = experiment: Growth inhibition of human NCI/ADR-RES cells assessed as cell growth at 0.01 uM incubated for 48 hrs by sulforhodamine B assay relative to control; details: read-out: Activity
# SF-268 = experiment: Growth inhibition of human SF-268 cells assessed as cell growth at 0.1 uM incubated for 48 hrs by sulforhodamine B assay relative to control; details: read-out: Activity
# IGROV-1 = experiment: Growth inhibition of human IGROV-1 cells assessed as cell growth at 100 uM incubated for 48 hrs by sulforhodamine B assay relative to control; details: read-out: Activity
# SK-MEL-2 [8] = experiment: Growth inhibition of human SK-MEL-2 cells assessed as cell growth at 0.01 uM incubated for 48 hrs by sulforhodamine B assay relative to control; details: read-out: Activity
# HCT-116 = experiment: Growth inhibition of human HCT-116 cells assessed as cell growth at 1 uM incubated for 48 hrs by sulforhodamine B assay relative to control; details: read-out: Activity
# NCI-H460 = experiment: Growth inhibition of human NCI-H460 cells incubated for 48 hrs by sulforhodamine B assay
# DU-145 [9] = experiment: Growth inhibition of human DU-145 cells assessed as cell growth at 100 uM incubated for 48 hrs by sulforhodamine B assay relative to control; details: read-out: Activity
# A549 = experiment: Growth inhibition of human A549/ATCC cells assessed as cell growth at 100 uM incubated for 48 hrs by sulforhodamine B assay relative to control; details: read-out: Activity
# NCI-H226 = experiment: Growth inhibition of human NCI-H226 cells assessed as cell growth at 0.01 uM incubated for 48 hrs by sulforhodamine B assay relative to control; details: read-out: Activity
# OVCAR-8 [10] = experiment: Growth inhibition of human OVCAR-8 cells incubated for 48 hrs by sulforhodamine B assay
# SK-OV-3 = experiment: Growth inhibition of human SK-OV-3 cells incubated for 48 hrs by sulforhodamine B assay
# PC-3 = experiment: Growth inhibition of human PC-3 cells assessed as cell growth at 0.1 uM incubated for 48 hrs by sulforhodamine B assay relative to control; details: read-out: Activity
# SW-620 = experiment: Growth inhibition of human SW-620 cells assessed as cell growth at 100 uM incubated for 48 hrs by sulforhodamine B assay relative to control; details: read-out: Activity
# RXF 393 = experiment: Growth inhibition of human RXF 393 cells assessed as cell growth at 1 uM incubated for 48 hrs by sulforhodamine B assay relative to control; details: read-out: Activity
# HOP-62 = experiment: Growth inhibition of human HOP-62 cells incubated for 48 hrs by sulforhodamine B assay
# MOLT-4 [11] = experiment: Growth inhibition of human MOLT-4 cells assessed as cell growth at 100 uM incubated for 48 hrs by sulforhodamine B assay relative to control; details: read-out: Activity
# 786-0 = experiment: Growth inhibition of human 786-0 cells assessed as cell growth at 1 uM incubated for 48 hrs by sulforhodamine B assay relative to control; details: read-out: Activity
# SK-MEL-2 [12] = experiment: Growth inhibition of human SK-MEL-2 cells assessed as cell growth at 1 uM incubated for 48 hrs by sulforhodamine B assay relative to control; details: read-out: Activity
# SF-539 = experiment: Growth inhibition of human SF-539 cells assessed as cell growth at 0.1 uM incubated for 48 hrs by sulforhodamine B assay relative to control; details: read-out: Activity
# OVCAR-4 = experiment: Growth inhibition of human OVCAR-4 cells assessed as cell growth at 1 uM incubated for 48 hrs by sulforhodamine B assay relative to control; details: read-out: Activity
# UACC-257 = experiment: Growth inhibition of human UACC-257 cells assessed as cell growth at 0.01 uM incubated for 48 hrs by sulforhodamine B assay relative to control; details: read-out: Activity
# MCF7 [13] = experiment: Growth inhibition of human MCF7 cells incubated for 48 hrs by sulforhodamine B assay
# UO-31 [14] = experiment: Growth inhibition of human UO-31 cells incubated for 48 hrs by sulforhodamine B assay
# [15] = read-out: LC50 (the source's name)
# [16] = read-out: pLC50 (the source's name) (converted)
structure (smiles),measurement,setting,value
CC(=O)Nc1cc(CO[Si](C)(C)C(C)(C)C)cc(NC(=O)c2ccc(C(=O)Nc3cccc(NC(=O)CCCN(C)C)c3)cc2)c1,growth at 0.1 µM,T47D,97%
same,growth at 0.01 µM,MCF7 [1],94%
same,growth at 0.01 µM,SN12C,96%
same,GI50,DU-145 [2]; read-out: GI50,> 75 µM
same,CC50,DU-145 [2]; [15],> 75 µM
same,TGI,DU-145 [2]; read-out: TGI,> 75 µM
same,GI50,DU-145 [2]; read-out: pGI50 (converted),> 75.9 µM
same,CC50,DU-145 [2]; [16],> 75.9 µM
same,TGI,DU-145 [2]; read-out: pTGI,> 75.9 µM
same,growth at 0.1 µM,MDA-MB-231,95%
same,growth at 0.01 µM,OVCAR-8 [3],102%
same,growth at 0.1 µM,UO-31 [4],94%
same,growth at 0.01 µM,SNB-75,93%
same,growth at 1 µM,A498 [5],48%
same,GI50,MOLT-4 [6]; read-out: GI50,> 75 µM
same,CC50,MOLT-4 [6]; [15],> 75 µM
same,TGI,MOLT-4 [6]; read-out: TGI,> 75 µM
same,GI50,MOLT-4 [6]; read-out: pGI50 (converted),> 75.9 µM
same,CC50,MOLT-4 [6]; [16],> 75.9 µM
same,TGI,MOLT-4 [6]; read-out: pTGI,> 75.9 µM
same,growth at 0.1 µM,A498 [7],62%
same,growth at 0.01 µM,NCI/ADR-RES,103%
same,growth at 0.1 µM,SF-268,100%
same,growth at 100 µM,IGROV-1,75%
same,growth at 0.01 µM,SK-MEL-2 [8],100%
same,growth at 1 µM,HCT-116,101%
same,GI50,NCI-H460; read-out: GI50,> 75 µM
same,CC50,NCI-H460; [15],> 75 µM
same,TGI,NCI-H460; read-out: TGI,> 75 µM
same,GI50,NCI-H460; read-out: pGI50 (converted),> 75.9 µM
same,CC50,NCI-H460; [16],> 75.9 µM
same,TGI,NCI-H460; read-out: pTGI,> 75.9 µM
same,growth at 100 µM,DU-145 [9],85%
same,growth at 100 µM,A549,98%
same,growth at 0.01 µM,NCI-H226,96%
same,GI50,OVCAR-8 [10]; read-out: GI50,> 75 µM
same,CC50,OVCAR-8 [10]; [15],> 75 µM
same,TGI,OVCAR-8 [10]; read-out: TGI,> 75 µM
same,GI50,OVCAR-8 [10]; read-out: pGI50 (converted),> 75.9 µM
same,CC50,OVCAR-8 [10]; [16],> 75.9 µM
same,TGI,OVCAR-8 [10]; read-out: pTGI,> 75.9 µM
same,GI50,SK-OV-3; read-out: GI50,> 75 µM
same,LC50 (concentration killing 50% of cells),SK-OV-3; read-out: LC50,> 75 µM
same,TGI,SK-OV-3; read-out: TGI,> 75 µM
same,GI50,SK-OV-3; read-out: pGI50 (converted),> 75.9 µM
same,LC50 (concentration killing 50% of cells),SK-OV-3; read-out: pLC50 (converted),> 75.9 µM
same,TGI,SK-OV-3; read-out: pTGI,> 75.9 µM
same,growth at 0.1 µM,PC-3,97%
same,growth at 100 µM,SW-620,100%
same,growth at 1 µM,RXF 393,106%
same,GI50,HOP-62; read-out: GI50,> 75 µM
same,CC50,HOP-62; [15],> 75 µM
same,TGI,HOP-62; read-out: TGI,> 75 µM
same,GI50,HOP-62; read-out: pGI50 (converted),> 75.9 µM
same,CC50,HOP-62; [16],> 75.9 µM
same,TGI,HOP-62; read-out: pTGI,> 75.9 µM
same,growth at 100 µM,MOLT-4 [11],98%
same,growth at 1 µM,786-0,93%
same,growth at 1 µM,SK-MEL-2 [12],112%
same,growth at 0.1 µM,SF-539,98%
same,growth at 1 µM,OVCAR-4,100%
same,growth at 0.01 µM,UACC-257,94%
same,GI50,MCF7 [13]; read-out: GI50,29.7 µM
same,CC50,MCF7 [13]; [15],> 75 µM
same,TGI,MCF7 [13]; read-out: TGI,> 75 µM
same,GI50,MCF7 [13]; read-out: pGI50 (converted),29.5 µM
same,CC50,MCF7 [13]; [16],> 75.9 µM
same,TGI,MCF7 [13]; read-out: pTGI,> 75.9 µM
same,GI50,UO-31 [14]; read-out: GI50,> 75 µM
same,CC50,UO-31 [14]; [15],> 75 µM
same,TGI,UO-31 [14]; read-out: TGI,> 75 µM
same,GI50,UO-31 [14]; read-out: pGI50 (converted),> 75.9 µM
same,CC50,UO-31 [14]; [16],> 75.9 µM
same,TGI,UO-31 [14]; read-out: pTGI,> 75.9 µM
